Source: US9453244B2, “Method for producing a monoalkene by enzymatic conversion of an alkyl monoester” (Scientist of Fortune S.A., priority 2012, dated 2016)

Experiments:
[1] = test system: purified terpene synthases; assay: Propylene production from propan-2-yl diphosphate with purified terpene synthases (headspace GC/FID); format: biochemical; settings: 50 mM substrate, 5 mg terpene synthase in 0.5 ml, 37° C., 60 hours
Method: (§1) The enzymatic assays were carried out under the following conditions: 50 mM Tris-HCl pH 7.5 100 mM MgCl2 50 mM KCl 5 mM DTT 50 mM propan-2-yl diphosphate 5 mg of the terpene synthase was added to 0.5 ml of reaction mixture. An enzyme-free control reaction was carried out in parallel. Assays were incubated at 37° C. for 60 hours in a 1.5 ml sealed glass vial (Interchim) with shaking. One ml of the headspace phase was then collected and injected into a gas chromatograph Varian 430-GC equipped with a flame ionization detector (FID). Nitrogen was used as carrier gas with a flow rate of 1.5 mL/min. Volatile compounds were chromatographically separated on RT-Alumina Bond/Na2SO4 column (Restek) using an isothermal mode at 130° C. The enzymatic reaction product was identified by comparison with propylene standard (Sigma). Under these GC conditions, the retention time for propylene was 2.8 min. […] Gas chromatography-mass spectrometry (GC-MS) was then used to confirm the identity of the product detected by gas chromatography with flame ionization. The samples were analyzed on a Varian 3400 CX gas chromatograph equipped with Varian Saturn 3 mass selective detector. The mass spectrum of propylene obtained by enzymatic conversion of propan-2-yl diphosphate was similar to the one of commercial propylene (FIG. 3).

[2] = molecular target: T1, isoprene synthase from Pueraria montana var. lobata (Pueraria montana var. lobata, UniProt Q6EJ97); assay: GC-MS confirmation of propylene produced from propan-2-yl diphosphate in the enzymatic reaction; format: biochemical; settings: FIG. 3
T1 construct: 6xHis (N); made in house; host or cells: E. coli BL21(DE3), pET 25b(+)
T1 sequence (Q6EJ97 46-608): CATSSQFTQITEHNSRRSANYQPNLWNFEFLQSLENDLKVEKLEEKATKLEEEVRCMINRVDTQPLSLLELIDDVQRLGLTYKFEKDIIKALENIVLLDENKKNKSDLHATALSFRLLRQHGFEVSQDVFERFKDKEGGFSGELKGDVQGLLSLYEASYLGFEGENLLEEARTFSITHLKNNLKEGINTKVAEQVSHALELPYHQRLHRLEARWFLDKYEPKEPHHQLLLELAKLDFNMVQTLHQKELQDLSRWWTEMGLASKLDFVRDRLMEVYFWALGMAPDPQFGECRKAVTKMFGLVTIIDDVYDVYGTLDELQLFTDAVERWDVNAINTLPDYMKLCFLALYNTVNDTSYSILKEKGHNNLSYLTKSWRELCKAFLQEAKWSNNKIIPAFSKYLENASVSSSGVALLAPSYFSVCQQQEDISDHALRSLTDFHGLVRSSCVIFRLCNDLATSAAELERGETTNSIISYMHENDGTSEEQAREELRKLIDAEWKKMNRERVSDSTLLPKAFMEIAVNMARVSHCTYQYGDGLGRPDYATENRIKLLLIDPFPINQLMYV
Method: as §1, with “5” for “The enzymatic assays were carried out under the following conditions: 50 mM Tris-HCl pH 7.5 100 mM MgCl2 50 mM KCl 5 mM DTT 50 mM propan-2-yl diphosphate 5”

In the case of propan-2-yl diphosphate, the “propylene production from the substrate (enzymatic conversion)” value ([1]; pH 7.5) is reported as “significant production of propylene”, the “propylene production from the substrate (enzymatic conversion)” value ([1]; pH 7.5, listed as propan-2-yl) is reported as “able to convert propan-2-yl into propylene” and the “propylene produced from the substrate, identity confirmed by mass spectrum” value [2] is reported as “propylene produced”.
